Test results: PMC9186491, “Novel Small Molecule Tyrosine Kinase 2 Pseudokinase Ligands Block Cytokine-Induced TYK2-Mediated Signaling Pathways” (Frontiers in Immunology, 2022)
Read-outs that look alike come from different tables or passages of the source.

What was measured:
[1] = test system: moderate to severe psoriasis patients; set-up: method as in PMID 30205746; conditions: phase II, 267 patients; cited from earlier work
[2] = test system: JAK2-dependent EPO-induced phosphorylation of STAT5 (Tyr694/699) in TF1 cells; experiment: JAK cellular selectivity assay, EPO-pSTAT5 (JAK2); format: cell-based, human
Experimental: (§1) The cells were then ready for the assay after incubating for 2 hours in a humidified, 5% CO2 cell culture incubator at 37°C. […] The curve fit was generated, and statistical analysis was performed using GraphPad Prism. IC50 values were derived by non-linear regression analysis and defined as the compound concentration at which the response level was reduced to half of its maximum relative to a DMSO control.

[3] = test system: IL23-induced TYK2/phosphoSTAT3 (Tyr705) in Kit225 T cells; experiment: Kit225 T cell assay for IL23-induced TYK2/phosphoSTAT3 activity; format: cell-based, human; conditions: Kit225 cells, 100 ng/mL IL23, AlphaLISA; read-out: IC50 IL23-induced-STAT3 Phosphorylation
Experimental: (§2) The cells were treated with serially diluted compounds for 1 hour and stimulated with 100 ng/mL human recombinant IL23 (R&D Systems) for 20 minutes. The treated cells were then lysed and cellular phosphorylated-STAT3 (Tyr705) levels were measured by AlphaLISA (PerkinElmer, Cat# ALSU-PST3) according to the manufacturer’s instructions.

[4] = test system: IFNα-induced TYK2/phosphoSTAT1 (Tyr701) in Kit225 T cells; experiment: Kit225 T cell assay for IFNα-induced TYK2/phosphoSTAT1 activity; format: cell-based, human; conditions: Kit225 cells, 80 ng/mL IFNα, AlphaLISA; read-out: IC50 IFNα-induced-STAT1 Phosphorylation
Experimental: as §2, with “80” for “100”, “IFNα” for “IL23”, “15” for “20”, “phosphorylated-STAT1 (Tyr701)” for “phosphorylated-STAT3 (Tyr705)”, “Cat#ALSU-PST1)” for “Cat# ALSU-PST3)”

[5] = test system: IFNα-induced CXCL10 production in human whole blood; experiment: IFNα-induced CXCL10 production in human whole blood; format: cell-based
Experimental: Human whole blood [drawn with Ethylenediaminetetraacetic acid (EDTA) as anti-coagulant] was obtained from Zen-Bio Inc. (Durham, NC). […] The plasma was collected for detection of C-X-C motif chemokine 10 (CXCL10, IP10) secretion. CXCL10 was measured by Human CXCL10/IP-10 AlphaLISA Kit (PerkinElmer, #AL259 C/F) according to the manufacturer’s instructions.

[6] = test system: IL23-induced-IL17 production in mouse splenocytes; experiment: IL23-induced IL17 production in mouse splenocytes; format: cell-based; conditions: Splenocyte; IL23-stimulated mouse splenocytes; read-out: mIL17 IC50
Experimental: (§3) generated by non-linear regression analysis to determine the IC50 values of compounds using […]
(Monkey, Canine, Rat and Mouse)
(A) Suppression of IL23-induced-IL17 production in mouse splenocytes by TYK2 JH2 ligands, […]
(§4) JH2 ligands, SHR2915, 0936, 1039 and 1213, in mouse splenocytes (B), Canine PBMCs (C), Rat PBMCs (D) and Macaque PBMCs (E). Inhibition data were calculated by comparison to vehicle […]
(§5) response curves were then generated to determine the IC50 values as derived by non-linear regression analysis using GraphPad Prism. […]

[7] = test system: IL12-induced-IFNg production in mouse splenocytes; experiment: IL12-induced IFNγ production in mouse splenocytes; format: cell-based; conditions: Splenocyte
[8] = test system: JAK1/3-dependent IL2-induced phosphorylation of STAT5 (Tyr694/699) in Kit225 cells; experiment: JAK cellular selectivity assay, IL2-pSTAT5 (JAK1/3); format: cell-based; conditions: Homo sapiens, KIT225, read-out: JAK Cellular Selectivity (IC50) IL2-pSTAT5 (JAK1/3)
Experimental: as §1

[9] = test system: IL12-induced-IFNg production in Macaque PBMCs; experiment: IL12-induced IFNγ production in macaque PBMCs; format: cell-based, Macaque (Cyno Monkey); conditions: Primates, PBMC, read-out: IL12-induced-IFNg, IC50, Monkey
Experimental: as §3
(§6) (Monkey, Canine, Rat and Mouse) […]
as §4, §5

[10] = test system: IL12-induced-IFNg production in Rat PBMCs; experiment: IL12-induced IFNγ production in rat PBMCs; format: cell-based; conditions: PBMC
Experimental: as §3, §6, §4, §5

[11] = test system: IL12-induced IFNγ production in human PBMCs; experiment: IL12-induced IFNγ production in human PBMCs; format: cell-based; conditions: PBMC, IL12 overnight, read-out: TYK2-associated IL12-induced-IFNγ Production in Human PBMCs: IC50
Experimental: Human PBMC samples were obtained from iQ Biosciences, CA. 1.0 × 10^6/mL PBMCs were seeded in complete RPMI at a sterilized U-shaped 96-well plate with a volume of 200 μL/well. PBMCs were treated by serially-diluted test compounds, and incubated with 40 ng/mL recombinant human IL12 (Biolegend, #573002) for overnight in a humidified, 5% CO2 cell culture incubator at 37°C. The supernatant was then collected for detection of IFNγ secretion. IFNγ level was measured by Human IFNγ AlphaLISA Kit (PerkinElmer, AL217C/F) according to the manufacturer’s instructions.

[12] = test system: JAK1-dependent IL6-induced phosphorylation of STAT3 (Tyr705) in TF1 cells; experiment: JAK cellular selectivity assay, IL6-pSTAT3 (JAK1); format: cell-based; conditions: Homo sapiens, TF-1, read-out: JAK Cellular Selectivity (IC50) IL6-pSTAT3 (JAK1)
Experimental: as §1

[13] = test system: IL12-induced-IFNg production in Canine PBMCs; experiment: IL12-induced IFNγ production in canine PBMCs; format: cell-based; conditions: Canis lupus familiaris, PBMC
Experimental: as §3, §6, §4, §5

Compound	Daily dose at which clinically effective [1] [mg]	IC50 ([2]; TF1 cells, read-out: JAK Cellular Selectivity (IC50) EPO-pSTAT5 (JAK2)) [nM]	IC50 [3] [nM]	IC50 [4] [nM]	IC50 ([5]; Donor 1, read-out: IFNa-induced-CXCL10 Production in Human Whole Blood IC50, Donor 1) [nM]	IC50 ([5]; Donor 2, read-out: IFNa-induced-CXCL10 Production in Human Whole Blood IC50, Donor 2) [nM]	IC50 ([5]; Donor 3, read-out: IFNa-induced-CXCL10 Production in Human Whole Blood IC50, Donor 3) [nM]	IC50 ([5]; average of Donor 1-3, read-out: IFNa-induced-CXCL10 Production in Human Whole Blood IC50, Average) [nM]	IC50 [6] [nM]	IC50 [7] [nM]	IC50 [8] [nM]	IC50 [9] [nM]	IC50 [10] [nM]	IC50 ([2]; Homo sapiens, TF-1, read-out: JAK Cellular Selectivity (IC50) EPO-pSTAT5 (JAK2)) [nM]	IC50 [11] [nM]	IC50 [12] [nM]	IC50 [13] [nM]	IC50 ([5]; Homo sapiens, 16 h, read-out: TYK2-associated IFNα-induced-CXCL10 Production in Human Whole Blood: IC50) [nM]
Deucravacitinib	≥ 3	> 10000	5	8.5	110	94	83	96										
CNC(=O)c1nnc(Nc2ccc(N3CCC3)cn2)cc1Nc1cccc(-c2ncn(C)n2)c1OC [SHR2915]									11	60	2300 ± 970	14	3	> 10000	45	200 ± 11	33	160
